Results taken from patent US8983257B2, “Therapeutic light delivery apparatus, method, and system” (Nomir Medical Technologies, Inc., priority 2002, dated 2015).
Several values for one entry are separate records, joined by “and”; a condition that tells them apart may be missing. Equal values may be shown once. Entries after “also recorded” stand apart in the source; their conditions may differ.

Columns and labels:
[1] = test system: MRSA colonization in the nares; experiment: Human study Part One: nasal colonization of MRSA, NOVEON laser alone, with H2O2 or with topical erythromycin; assay type: in vivo, Staphylococcus aureus; conditions: for MRSA Average: per patient, mean of triplicate plates, all arms with NOVEON laser
Procedure: (§1) This investigational protocol was an open-label study of subjects who are colonized with MRSA in the nares (nostril). The study was done in two parts.
(§2) In this human study, three arms were produced. […] This was done on day 1 and again on day three; and Arm #3: ⅓ of the subjects were treated with the laser and then a topical antibiotic three times a day for five days. Prior to enrollment in this study, prospective subjects met all of the following criteria: age≧18 years and ≦70 years of age; previous positive MRSA culture; negative urine pregnancy test or post-menopausal for one year; willing to comply with study requirements, including return visits and self-application of topical antibiotics; and willing to provide informed consent to participate. Prospective subjects were excluded from this study if any of the following criteria were met: pregnancy; patients who are severely immunocompromised (such as may occur in AIDS, renal transplant regimens, immunosuppressed states consequent to malignancy or agents used in rendering oncologic care, or who suffer from end stage renal disease); diabetic patients; allergy to antimicrobials being used in the study (group 3).
(§3) All participants underwent an initial quantitative assessment for nasal carriage of S. aureus, during their first visit. Each participant had the anterior nares (each nostril) sampled for culture with a circular movement (three rotations on each side) of a sterile wood applicator plain Rayon® tipped swab in each nostril and placed in a labeled tube. 2 ml of room temp phosphate buffered saline was placed in the tube after the removal of the swab (to completely cover the swab in the tube). Each swab was then placed back in the tube and the tube was then vortexed for 15 seconds to disperse isolates of MRSA and/or MSSA into the PBS solution. Aliquots of PBS from the tube were plated in the following manner: 100 μl from each tube was lawn plated in triplicate (3×) on selective Chromogenic MRSA And MSSA agar. Plates were placed in incubator within 30 minutes of the plating procedure, and colonies were counted manually, and recorded 18 hrs after plating.
(§4) On day one of the study, all subjects underwent this exact procedure in arms 1 and 2 of the study two minutes before the laser procedure. They again were sampled in the same manner 2 minutes after the laser procedure. In the third arm of the study, they were swabbed two minutes before the procedure and the first antibiotic administration was completed after the laser therapy. The post/laser swab sample was taken for this arm 20 min later.
(§5) On day three of the study, all subjects from arms one two and three underwent the exact same procedures as day 1 of the study.
(§6) On day five all subjects from all arms underwent just one swabbing per nostril with the exact same sampling procedure one time.
(§7) 3% OTC hydrogen peroxide was applied to a cotton pledget for application to the subject prior to irradiation. This was inserted in the nose for 120 seconds and then removed. The subjects were then given doses of phototherapeutic near infrared radiation as described.
(§8) The subjects were first given doses of phototherapeutic near infrared radiation as described. […] The swab was inserted approximately 1 cm in to the anterior nares and rotated 360 degrees several times and removed. Patients were instructed to perform the exact application procedure 3 times a day for the remaining 5 days.
(§9) The NOVEON™ laser was used for two (2) six-minute treatments in each nostril on day (1) and day (3) of the study.
(§10) The laser was calibrated before the first treatment of the day. Intermittent temperature testing of the treatment site was performed on each subject using a noncontact infrared thermometer (Raytek Minitemp), 30-60 second intervals. If a temperature of 110 F degrees was reached, or the patient complained of pain, the laser treatment was interrupted and only resumed when the patient was comfortable.

MRSA [2] = experiment: MRSA CFU counts on agar with trimethoprim or erythromycin after sub-lethal NIMELS laser (Example VIII); assay type: cell-based, Staphylococcus aureus; conditions: plates B-4 1 to 5
Description: The following illustrates the general antibacterial methods according to the invention, using a MRSA model for the in vitro Experiments V and VIII-XII.
a) μ1 is sub-lethal dosimetry from the NIMEL laser system on MRSA as a control and;

MRSA [3] = experiment: MRSA/antimicrobial potentiation Experiment 4: CFU with or without methicillin, penicillin G or erythromycin, groups A4 to F4; assay type: cell-based, Staphylococcus aureus; conditions: for Laser Effect (+Drug): ratio of AVG Exp with drug to Cont with drug; for Drug Effect / Fold increase in antibiotic sensitivity: 0.5 μg/ml penicillin G; for Drug Effect: ratio of AVG with drug to without drug; for AVG (CFU) / CFU/ml / CFU: agar with 0.5 μg/ml penicillin G
Procedure: Two different laser dosages based on an effective dose established in previous experiments were used to treat a saline-suspension of logarithmically growing MRSA, labeled A4 to F4.
After 24 hrs of growth at 37° C. colonies were counted.

[4] = test system: MSSA colonies in the nares; experiment: Human study Part One: nasal colonization of MSSA, NOVEON laser alone, with H2O2 or with topical erythromycin; assay type: in vivo, Staphylococcus aureus; conditions: per patient, mean of triplicate plates, all arms with NOVEON laser
Procedure: as §1, §2, §3, §4, §5, §6, §7, §8, §9, §10

[5] = Initial Analysis, Post-treatment swab, left nostril
[6] = Initial Analysis, Post-treatment swab, right nostril
[7] = Initial Analysis, Pre swab, left nostril
[8] = Initial Analysis, Pre swab, right nostril
[9] = Second Analysis, Post-treatment swab, left nostril
[10] = Second Analysis, Post-treatment swab, right nostril
[11] = Second Analysis, Pre swab, left nostril
[12] = Second Analysis, Pre swab, right nostril
[13] = Third Analysis, Swab, left nostril
[14] = Third Analysis, Swab, right nostril

OO [H2O2, hydrogen peroxide]
outcome of the Laser plus H2O2 arm (in words) ([1]; human subjects, 3% hydrogen peroxide in the nose for 120 seconds, then laser, day 1 and day 3): may have had some transient benefit in some of the patients, but no obvious long-term efficacy

COc1cc(Cc2cnc(N)nc2N)cc(OC)c1OC [Trimethoprim]
MRSA colony count, CONTROL (no laser), trimeth 2 ug/ml (MRSA [2]; no laser, agar with trimethoprim 2 ug/ml): 145 and 213 and 198 and 240 and 220
MRSA colony count, EXPERIMENTAL, trimeth 2 ug/ml (MRSA [2]; sub-lethal NIMELS laser, then plated on agar with trimethoprim 2 ug/ml): 100 and 110

Penicillin
Laser Effect (+Drug) (MRSA [3]; Group C4, 0.5 μg/ml penicillin G): 0.28
Drug Effect (MRSA [3]; Group C4, Cont (no laser)): 0.75
AVG (CFU) (MRSA [3]; Group C4, Cont (no laser)): 108.4 CFU
CFU/ml (MRSA [3]; Group C4, Cont (no laser)): 3.25E+08 CFU/ml
CFU (MRSA [3]; Group C4, Cont (no laser), replicate plates 1-5, 24 hrs 37° C.): 106 CFU and 99 CFU and 102 CFU and 113 CFU and 122 CFU
Drug Effect (MRSA [3]; Group C4, Exp (laser treated)): 0.34
AVG (CFU) (MRSA [3]; Group C4, Exp (laser treated)): 30.4 CFU
CFU/ml (MRSA [3]; Group C4, Exp (laser treated)): 9.12E+07 CFU/ml
CFU (MRSA [3]; Group C4, Exp (laser treated), replicate plates 1-5): 25 CFU and 33 CFU (2×) and 19 CFU and 42 CFU
Laser Effect (+Drug) (MRSA [3]; Group D4, 0.5 μg/ml penicillin G): 0.18
Drug Effect (MRSA [3]; Group D4, Cont (no laser)): 1.07
AVG (CFU) (MRSA [3]; Group D4, Cont (no laser)): 132.8 CFU
CFU/ml (MRSA [3]; Group D4, Cont (no laser)): 3.98E+08 CFU/ml
CFU (MRSA [3]; Group D4, Cont (no laser), replicate plates 1-5, 24 hrs 37° C.): 101 CFU and 111 CFU and 138 CFU and 132 CFU and 182 CFU
Drug Effect (MRSA [3]; Group D4, Exp (laser treated)): 0.31
AVG (CFU) (MRSA [3]; Group D4, Exp (laser treated)): 23.8 CFU
CFU/ml (MRSA [3]; Group D4, Exp (laser treated)): 7.14E+07 CFU/ml
CFU (MRSA [3]; Group D4, Exp (laser treated), replicate plates 1-5): 14 CFU and 23 CFU and 22 CFU and 29 CFU and 31 CFU
Fold increase in antibiotic sensitivity (MRSA [3]; grouping C4): 2.21
Fold increase in antibiotic sensitivity (MRSA [3]; grouping D4): 3.45
synergy or potentiation with NIMELS in growth inhibition of MRSA colonies (in words) (MRSA [3]; sub-lethal NIMELS dosimetry, bar chart figure): synergistic effects; also recorded: potentiated by sub-lethal NIMELS dosimetry
reversal of MRSA resistance in vitro by dual wavelength NOVEON laser (in words) (MRSA [3]; temperature levels not lethal to the organism): successful reversal of MRSA resistance

OO [Peroxide]
s. aureus Average [4, 5]: 0 CFU (2×) and 20 CFU and 1 CFU
s. aureus Average [4, 6]: 0 CFU and 506 CFU and 146 CFU and 3272 CFU
s. aureus Average [4, 7]: 1 CFU and 53 CFU and 17 CFU and 124 CFU
s. aureus Average [4, 8]: 0 CFU and 29 CFU and 285 CFU and 3996 CFU
s. aureus Average [4, 9]: 0 CFU (3×) and 10 CFU
s. aureus Average [4, 10]: 0 CFU and 126 CFU and 5 CFU and 3589 CFU
s. aureus Average [4, 11]: 1 CFU and 206 CFU and 4 CFU and 12 CFU
s. aureus Average [4, 12]: 1 CFU and 94 CFU and 257 CFU and 4373 CFU
s. aureus Average [4, 13]: 1 CFU and 868 CFU and 28 CFU and 0 CFU
s. aureus Average [4, 14]: 1 CFU and 586 CFU and 52 CFU and 3493 CFU
MRSA Average [1, 5]: 0 CFU (2×) and 22 CFU and 1 CFU
MRSA Average [1, 6]: 0 CFU (2×) and 455 CFU and 2752 CFU
MRSA Average [1, 7]: 0 CFU (2×) and 63 CFU and 4 CFU
MRSA Average [1, 8]: 0 CFU (2×) and 30 CFU and 4032 CFU
MRSA Average [1, 9]: 0 CFU (3×) and 12 CFU
MRSA Average [1, 10]: 0 CFU (2×) and 114 CFU and 3347 CFU
MRSA Average [1, 11]: 0 CFU (2×) and 180 CFU and 17 CFU
MRSA Average [1, 12]: 0 CFU (2×) and 90 CFU and 3099 CFU
MRSA Average [1, 13]: 0 CFU (3×) and 827 CFU
MRSA Average [1, 14]: 0 CFU (2×) and 563 CFU and 3648 CFU
